The results in this text go back to patent publication US8461107B2 (Merck Sharp & Dohme Corp., priority 2008, dated 2013).

pKi: −log10 of the molar value.

The assay has as its target T1, HCV genotype 1b (BK) NS3 modified with a R155K mutation (Hepatitis C virus genotype 1b, UniProt P26663, R1181K).
T1 construct: HCV genotype 1b (BK) NS3 modified with a R155K mutation
The assay is described as follows: HCV NS3 protease time-resolved fluorescence (TRF) assay, NS3 protease 1b R155K Ki activity. It counts as biochemical. To be noted: HCV genotype 1b (BK) NS3 with R155K mutation; TRF peptide substrate 100 nM; Ki derived from IC50. On the procedure:
The HCV NS3 protease inhibitory activity of the present compounds may be tested using assays known in the art. One such assay is HCV NS3 protease time-resolved fluorescence (TRF) assay as described below and in International Patent Application Publication WO 2006/102087. Other examples of such assays are described in e.g., International Patent Application Publication WO 2005/046712.
A NS3 protease assay can be performed, for example, in a final volume of 100 μl assay buffer containing 50 mM HEPES, pH 7.5, 150 mM NaCl, 15% glycerol, 0.15% TRITON X-100, 10 mM DTT, and 0.1% PEG 8000. NS3 and NS4A protease is pre-incubated with various concentrations of inhibitors in DMSO for 30 minutes. The reaction is initiated by adding the TRF peptide substrate (final concentration 100 nM). NS3 mediated hydrolysis of the substrate is quenched after 1 hour at room temperature with 100 μl of 500 mM MES, pH 5.5. Product fluorescence is detected using either a VICTOR V2 or FUSION fluorophotometer (Perkin Elmer Life and Analytical Sciences) with excitation at 340 nm and emission at 615 nm with a 400 μs delay. Testing concentrations of different enzyme forms are selected to result in a signal to background ratio (S/B) of 10-30. IC50 values are derived using a standard four-parameter fit to the data. Ki values are derived from IC50 values using the following formula, IC50=Ki(1+[S]/KM), Eqn (1), where [S] is the concentration of substrate peptide in the reaction and KM is the Michaelis constant. See P. Gallinari et al., 38 BIOCHEM. 5620-32 (1999); P. Gallinari et al., 72 J. VIROL. 6758-69 (1998); M. Taliani et al., 240 ANAL. BIOCHEM. 60-67 (1996).
The HCV NS3 protease inhibitory activity was measured using the protease time-resolved fluorescence (TRF) assay as described below and in International Patent Application Publication WO 2006/102087. The assay was performed with HCV genotype 1b (BK) NS3 modified with a R155K mutation.
The assay was performed in a final volume of 100 μl in assay buffer containing 50 mM HEPES, pH 7.5, 150 mM NaCl, 15% glycerol, 0.15% TRITON X-100, 10 mM DTT, and 0.1% PEG 8000. NS3 and NS4A protease is pre-incubated with various concentrations of inhibitors in DMSO for 30 minutes. The reaction is initiated by adding the TRF peptide substrate (final concentration 100 nM). NS3 mediated hydrolysis of the substrate is quenched after 1 hour at room temperature with 100 μl of 500 mM MES, pH 5.5. Product fluorescence is detected using either a VICTOR V2 or FUSION fluorophotometer (Perkin Elmer Life and Analytical Sciences) with excitation at 340 nm and emission at 615 nm with a 400 μs delay. Testing concentrations of the enzyme containing the R155K mutation were selected to result in a signal to background ratio (S/B) of 10-30. IC50 values are derived using a standard four-parameter fit to the data. Ki values are derived from IC50 values using the following formula, IC50=Ki(1+[S]/KM), Eqn (1), where [S] is the concentration of substrate peptide in the reaction and KM is the Michaelis constant. See P. Gallinari et al., 38 BIOCHEM. 5620-32 (1999); P. Gallinari et al., 72 J. VIROL. 6758-69 (1998); M. Taliani et al., 240 ANAL. BIOCHEM. 60-67 (1996).
In turn, `C=C[C@@H]1C[C@]1(NC(=O)[C@@H]1C[C@@H]2CN1C(=O)[C@H](C1CCCC1)NC(=O)O[C@@H]1CCC[C@H]1C/C=C/Cn1c(cc3ccccc3c1=O)O2)C(=O)NS(=O)(=O)C1CC1` had a negative-log Ki (pKi) of 9.30 to 10.00. The molecule `C=C[C@@H]1C[C@]1(NC(=O)[C@@H]1C[C@@H]2CN1C(=O)[C@H](C1CCCC1)NC(=O)O[C@@H]1CCC[C@H]1CC1CC1CCn1c(cc3cc(Cl)ccc3c1=O)O2)C(=O)NS(=O)(=O)C1CC1` (some centres unmarked) had a pKi of 9.30 to 10.00. With `C=C[C@@H]1C[C@]1(NC(=O)[C@@H]1C[C@@H]2CN1C(=O)[C@H](C1CCCC1)NC(=O)O[C@@H]1CCC[C@H]1CCCC1CC1Cn1c(cc3ccccc3c1=O)O2)C(=O)NS(=O)(=O)C1CC1` (some centres unmarked), the pKi was 9.00 to 9.30.

Regarding `CC[C@@H]1C[C@]1(NC(=O)[C@@H]1C[C@@H]2CN1C(=O)[C@H](C1CCCC1)NC(=O)O[C@@H]1CCC[C@H]1CC/C=C/Cn1c(nc3cc(C)ccc3c1=O)O2)C(=O)NS(=O)(=O)C1CC1` [(1R,14E,18S,22R,26S,29S)-26-cyclopentyl-N-((1R,2R)-1-{[(cyclopropylsulfonyl)amino]carbonyl}-2-ethylcyclopropyl)-7-methyl-11,24,27-trioxo-2,23-dioxa-4,12,25,28-tetraazapentacyclo[26.2.1.0^3,12.0^5,10.0^18,22]hentriaconta-3,5,7,9,14-pentaene-29-carboxamide], the pKi was 9.30 to 10.00.

Regarding `C=C[C@@H]1C[C@]1(NC(=O)[C@@H]1C[C@@H]2CN1C(=O)[C@H](C1CCCC1)NC(=O)O[C@@H]1CCC[C@H]1CCCCCn1c(ccc(Br)c1=O)O2)C(=O)NS(=O)(=O)C1CC1` [(1R,14R,18R,22S,25S)-6-bromo-22-cyclopentyl-N-((1R,2S)-1-{[(cyclopropylsulfonyl)amino]carbonyl}-2-vinylcyclopropyl)-7,20,23-trioxo-2,19-dioxa-8,21,24-triazatetracyclo[22.2.1.0^3,8.0^14,18]heptacosa-3,5-diene-25-carboxamide], the pKi was 9.30 to 10.00. In the case of `C=C[C@@H]1C[C@]1(NC(=O)[C@@H]1C[C@@H]2CN1C(=O)[C@H](C1CCCC1)NC(=O)O[C@@H]1CCC[C@H]1CCCCCn1c(cccc1=O)O2)C(=O)NS(=O)(=O)C1CC1` [(1R,14R,18R,22S,25S)-22-cyclopentyl-N-((1R,2S)-1-{[(cyclopropylsulfonyl)amino]carbonyl}-2-vinylcyclopropyl)-7,20,23-trioxo-2,19-dioxa-8,21,24-triazatetracyclo[22.2.1.0^3,8.0^14,18]heptacosa-3,5-diene-25-carboxamide] it was 9.30 to 10.00. For `C=C[C@@H]1C[C@]1(NC(=O)[C@@H]1C[C@@H]2CN1C(=O)[C@H](C1CCCC1)NC(=O)O[C@@H]1CCC[C@H]1CCCCCn1c(ccc(-c3ccccc3)c1=O)O2)C(=O)NS(=O)(=O)C1CC1` [(1R,14R,18R,22S,25S)-22-cyclopentyl-N-((1R,2S)-1-{[(cyclopropylsulfonyl)amino]carbonyl}-2-vinylcyclopropyl)-7,20,23-trioxo-6-phenyl-2,19-dioxa-8,21,24-triazatetracyclo[22.2.1.0^3,8.0^14,18]heptacosa-3,5-diene-25-carboxamide] the value was 9.30 to 10.00. Turning to `C=C[C@@H]1C[C@]1(NC(=O)[C@@H]1C[C@@H]2CN1C(=O)[C@H](C1CCCC1)NC(=O)O[C@@H]1CCC[C@H]1CCCCCn1c(nc3cc(Cl)ccc3c1=O)O2)C(=O)NS(=O)(=O)C1(C)CC1` [(1R,18R,22R,26S,29S)-7-chloro-26-cyclopentyl-N-[(1R,2S)-1-({[(1-methylcyclopropyl)sulfonyl]amino}carbonyl)-2-vinylcyclopropyl]-11,24,27-trioxo-2,23-dioxa-4,12,25,28-tetraazapentacyclo[26.2.1.0^3,12.0^5,10.0^18,22]hentriaconta-3,5,7,9-tetraene-29-carboxamide], the pKi is greater than 10.00. In the case of `C=C[C@@H]1C[C@]1(NC(=O)[C@@H]1C[C@@H]2CN1C(=O)[C@H](C1CCCC1)NC(=O)O[C@@H]1CCC[C@H]1CCCCCn1c(nc3cc(OC)ccc3c1=O)O2)C(=O)NS(=O)(=O)C1(C)CC1` [(1R,18R,22R,26S,29S)-26-cyclopentyl-7-methoxy-N-[(1R,2S)-1-({[(1-methylcyclopropyl)sulfonyl]amino}carbonyl)-2-vinylcyclopropyl]-11,24,27-trioxo-2,23-dioxa-4,12,25,28-tetraazapentacyclo[26.2.1.0^3,12.0^5,10.0^18,22]hentriaconta-3,5,7,9-tetraene-29-carboxamide] it was greater than 10.00; in that of `CC[C@@H]1C[C@]1(NC(=O)[C@@H]1C[C@@H]2CN1C(=O)[C@H](C1CCCC1)NC(=O)O[C@@H]1C[C@H]1CCCCCn1c(cc3ccccc3c1=O)O2)C(=O)NS(=O)(=O)C1CC1` [(1aR,5S,8S,10R,23aR)-5-cyclopentyl-N-((1R,2R)-1-{[(cyclopropylsulfonyl)amino]carbonyl}-2-ethylcyclopropyl)-3,6,17-trioxo-1,1a,3,4,5,6,9,10,19,20,21,22,23,23a-tetradecahydro-8H,17H-7,10-methanocyclopropa[18,19][1,10,3,6,12]dioxatriazacyclononadecino[12,11-b]isoquinoline-8-carboxamide], 9.30 to 10.00; in that of `C=C[C@@H]1C[C@]1(NC(=O)[C@@H]1C[C@@H]2CN1C(=O)[C@H](C1CCCC1)NC(=O)O[C@@H]1C[C@H]1CCCCCn1c(cc3ccccc3c1=O)O2)C(=O)NS(=O)(=O)C1CC1` [(1aR,5S,8S,10R,23aR)-5-cyclopentyl-N-((1R,2S)-1-{[(cyclopropylsulfonyl)amino]carbonyl}-2-vinylcyclopropyl)-3,6,17-trioxo-1,1a,3,4,5,6,9,10,19,20,21,22,23,23a-tetradecahydro-8H,17H-7,10-methanocyclopropa[18,19][1,10,3,6,12]dioxatriazacyclononadecino[12,11-b]isoquinoline-8-carboxamide], greater than 10.00. In turn, `CC[C@@H]1C[C@]1(NC(=O)[C@@H]1C[C@@H]2CN1C(=O)[C@H](C1CCCC1)NC(=O)O[C@H]1C[C@@H]1CCCCCn1c(cc3ccccc3c1=O)O2)C(=O)NS(=O)(=O)C1CC1` [(1aS,5S,8S,10R,23aS)-5-cyclopentyl-N-((1R,2R)-1-{[(cyclopropylsulfonyl)amino]carbonyl}-2-ethylcyclopropyl)-3,6,17-trioxo-1,1a,3,4,5,6,9,10,19,20,21,22,23,23a-tetradecahydro-8H,17H-7,10-methanocyclopropa[18,19][1,10,3,6,12]dioxatriazacyclononadecino[12,11-b]isoquinoline-8-carboxamide] showed a pKi of 9.30 to 10.00. For `C=C[C@@H]1C[C@]1(NC(=O)[C@@H]1C[C@@H]2CN1C(=O)[C@H](C1CCCC1)NC(=O)O[C@H]1C[C@@H]1CCCCCn1c(cc3ccccc3c1=O)O2)C(=O)NS(=O)(=O)C1CC1` [(1aS,5S,8S,10R,23aS)-5-cyclopentyl-N-((1R,2S)-1-{[(cyclopropylsulfonyl)amino]carbonyl}-2-vinylcyclopropyl)-3,6,17-trioxo-1,1a,3,4,5,6,9,10,19,20,21,22,23,23a-tetradecahydro-8H,17H-7,10-methanocyclopropa[18,19][1,10,3,6,12]dioxatriazacyclononadecino[12,11-b]isoquinoline-8-carboxamide] the value was 9.30 to 10.00; for `CC[C@@H]1C[C@]1(NC(=O)[C@@H]1C[C@@H]2CN1C(=O)[C@H](C1CCCC1)NC(=O)O[C@@H]1CCC[C@H]1CC/C=C/Cn1c(nc3ccccc3c1=O)O2)C(=O)NS(=O)(=O)C1CC1` [(3aR,7S,10S,12R,22E,25aS)-7-cyclopentyl-N-((1R,2R)-1-{[(cyclopropylsulfonyl)amino]carbonyl}-2-ethylcyclopropyl)-5,8,19-trioxo-1,2,3,3a,5,6,7,8,11,12,21,24,25,25a-tetradecahydro-10H,19H-9,12-methanocyclopenta[18,19][1,10,3,6,12]dioxatriazacyclononadecino[11,12-b]quinazoline-10-carboxamide], 9.30 to 10.00.
